According to ChEMBL document CHEMBL5518203, “Rational Design of Benzobisheterocycle Metallo-β-Lactamase Inhibitors: A Tricyclic Scaffold Enhances Potency against Target Enzymes” (J Med Chem, 2024):
In brackets after ≈: the same amount, converted by molar mass. Activity calls are given as the source filed them. No cut-off for these calls is given here.

Legend:
[1] = target: Metallo-beta-lactamase type 2 (Bacteria, UniProt C7C422); test: Inhibition of his6-tagged NDM-1 (unknown origin) expressed in Escherichia coli BL21-DE3 incubated for 16 hrs
[2] = Inhibition of his6-tagged IMP-1 (unknown origin) expressed in Escherichia coli BL21-DE3 incubated for 16 hrs; parameters: species or system Bacteria
[3] = Inhibition of his6-tagged VIM-2 (unknown origin) expressed in Escherichia coli BL21-DE3 incubated for 16 hrs
[4] = Inhibition of his6-tagged SFH-1 (unknown origin) expressed in Escherichia coli BL21-DE3 incubated for 16 hrs; parameters: species or system Enzyme
[5] = Inhibition of his6-tagged L1 (unknown origin) expressed in Escherichia coli BL21-DE3 incubated for 16 hrs; parameters: species or system Enzyme inhibition
[6] = Stability in human plasma assessed as half life by HPLC analysis; assay type: ADME, cell-free
L929 = test: Cytotoxicity against mouse L929 cells assessed as reduction in cell viability at 100 microg/ml incubated for 24 hrs by MTT assay; assay type: toxicity, cell-based; conditions: l929, 24 h
[7] = target: Metallo-beta-lactamase type 2 (Bacteria) (UniProt C7C422); test: Inhibition of full length NDM-1 (unknown origin) expressed in Escherichia DH5alpha at 100 microg/ml measured at 1 to 5 hrs; conditions: dose 100.0 µg/ml, time 1-5 hrs
Klebsiella pneumoniae [8] = test: Potentiation of meropenem induced antibacterial activity against Klebsiella pneumoniae LC82 expressing IMP-13 assessed as meropenem MIC by CLSI based broth microdilution method; assay type: functional
Klebsiella pneumoniae [9] = test: Potentiation of meropenem induced antibacterial activity against Klebsiella pneumoniae 6907 expressing VIM-2 assessed as meropenem MIC by CLSI based broth microdilution method; assay type: functional
Klebsiella pneumoniae [10] = test: Potentiation of meropenem induced antibacterial activity against Klebsiella pneumoniae 5639 expressing VIM-24 assessed as meropenem MIC by CLSI based broth microdilution method; assay type: functional
Klebsiella pneumoniae [11] = test: Potentiation of meropenem induced antibacterial activity against Klebsiella pneumoniae 1.37 expressing NDM-1 assessed as meropenem MIC by CLSI based broth microdilution method; assay type: functional
Klebsiella pneumoniae [12] = test: Potentiation of meropenem induced antibacterial activity against Klebsiella pneumoniae 7.15 expressing NDM-1 assessed as meropenem MIC by CLSI based broth microdilution method; assay type: functional
Klebsiella pneumoniae [13] = test: Potentiation of meropenem induced antibacterial activity against Klebsiella pneumoniae 1.41 expressing NDM-1 assessed as meropenem MIC by CLSI based broth microdilution method; assay type: functional
Enterobacter cloacae [14] = test: Potentiation of meropenem induced antibacterial activity against Enterobacter cloacae 6.31 expressing NDM-1 assessed as meropenem MIC by CLSI based broth microdilution method; assay type: functional
Enterobacter cloacae [15] = test: Potentiation of meropenem induced antibacterial activity against Enterobacter cloacae 1.28 expressing NDM-1 assessed as meropenem MIC by CLSI based broth microdilution method; assay type: functional
Escherichia coli = test: Potentiation of meropenem induced antibacterial activity against Escherichia coli 3.68 expressing NDM-1 assessed as meropenem MIC by CLSI based broth microdilution method; assay type: functional
Providencia rettgeri [16] = test: Potentiation of meropenem induced antibacterial activity against Providencia rettgeri 1.27 expressing NDM-1 assessed as meropenem MIC by CLSI based broth microdilution method; assay type: functional
Klebsiella pneumoniae [17] = test: Antibacterial activity against Klebsiella pneumoniae LC82 assessed as inhibition of bacterial growth by CLSI based broth microdilution method; assay type: functional
Klebsiella pneumoniae [18] = test: Antibacterial activity against Klebsiella pneumoniae 6907 assessed as inhibition of bacterial growth by CLSI based broth microdilution method; assay type: functional
Klebsiella pneumoniae [19] = test: Antibacterial activity against Klebsiella pneumoniae 5639 assessed as inhibition of bacterial growth by CLSI based broth microdilution method; assay type: functional
Klebsiella pneumoniae [20] = test: Antibacterial activity against Klebsiella pneumoniae 1.37 assessed as inhibition of bacterial growth by CLSI based broth microdilution method; assay type: functional
Klebsiella pneumoniae [21] = test: Antibacterial activity against Klebsiella pneumoniae 7.15 assessed as inhibition of bacterial growth by CLSI based broth microdilution method; assay type: functional
Klebsiella pneumoniae [22] = test: Antibacterial activity against Klebsiella pneumoniae 1.41 assessed as inhibition of bacterial growth by CLSI based broth microdilution method; assay type: functional
Enterobacter cloacae [23] = test: Antibacterial activity against Enterobacter cloacae 6.31 assessed as inhibition of bacterial growth by CLSI based broth microdilution method; assay type: functional
Enterobacter cloacae [24] = test: Antibacterial activity against Enterobacter cloacae 1.28 assessed as inhibition of bacterial growth by CLSI based broth microdilution method; assay type: functional
Providencia rettgeri [25] = test: Antibacterial activity against Providencia rettgeri 1.27 assessed as inhibition of bacterial growth by CLSI based broth microdilution method; assay type: functional

Metallo-beta-lactamase type 2, sequence (C7C422 whole entry): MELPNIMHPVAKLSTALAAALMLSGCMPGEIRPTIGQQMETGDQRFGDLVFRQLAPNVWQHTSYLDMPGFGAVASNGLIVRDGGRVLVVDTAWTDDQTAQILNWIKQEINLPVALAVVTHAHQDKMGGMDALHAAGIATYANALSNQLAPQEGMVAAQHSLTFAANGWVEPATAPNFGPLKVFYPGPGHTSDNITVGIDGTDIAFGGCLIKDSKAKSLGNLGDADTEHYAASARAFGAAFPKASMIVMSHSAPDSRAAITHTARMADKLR
Metallo-beta-lactamase type 2 (Bacteria), sequence (C7C422 whole entry): as above

SMILES | IC50 [1] | IC50 ([2]; read-out: IC50) | IC50 ([3]; read-out: IC50) | IC50 ([4]; read-out: IC50) | IC50 ([5]; read-out: IC50) | IC50 [4] | further results
O=C(O)[C@@H]1CS[C@H]2CS[C@H](CS)N21 | 13 µM | 17.3 µM | 8.5 µM | 0.79 µM | 22 µM |  | t1/2 [6]: 0.383 h
CCOC(=O)[C@@H]1CS[C@H]2CS[C@H](CS)N21 | 2.7 µM | 0.26 µM | 0.17 µM | 5.5 µM | 6.9 µM |  | 
NCCOC(=O)[C@@H]1CS[C@H]2CS[C@H](CS)N21 | 53 µM |  |  |  | 58 µM | Not Active | 
CCOC(=O)[C@]12CS[C@H](CS)N1[C@H](C(=O)O)CS2 | 13 µM |  |  |  |  | Not Active | IC50 [2]: Not Active; IC50 [3]: Not Active; IC50 [5]: Not Active
O=C(NCc1ccccc1)[C@@H]1CS[C@H]2CS[C@H](CS)N21 | 7.7 µM |  |  |  | 8.9 µM | Not Active | 
Nc1nc(COC(=O)[C@@H]2CS[C@H]3CS[C@H](CS)N32)cs1 | 27 µM |  |  |  | 30 µM | Not Active | 
COc1ccc(CNC(=O)[C@@H]2CS[C@H]3CS[C@H](CS)N32)cc1 | 52 µM |  |  |  | 24 µM | Not Active | 
O=C(O)[C@@H]1CS[C@H]2CS[C@H](CCS)N21 | 3.1 µM |  |  |  | 12 µM | Not Active | IC50 [2]: Not Active; IC50 [3]: Not Active
O=C(Nc1ccccc1)[C@@H]1CS[C@H]2CS[C@H](CS)N21 | 20 µM |  |  |  | 15 µM | Not Active | 
CC(C)(C)OC(=O)NCCOC(=O)[C@@H]1CS[C@H]2CS[C@H](CS)N21 | 7.9 µM |  |  |  | 5.4 µM | Not Active | 
Nc1ccccc1NC(=O)[C@@H]1CS[C@H]2CS[C@H](CS)N21 | 29 µM |  |  |  | 32 µM | Not Active | 
SCC[C@H]1SC[C@@H]2SCCN21 (racemic) | 8.3 µM | 5.8 µM | 1.2 µM | 55 µM | 7.8 µM |  | 
SC[C@H]1SC[C@@H]2SCCN21 (racemic) | 1.2 µM | 1.09 µM | 0.88 µM | 7.5 µM | 4.9 µM |  | 
SC[C@H]1SC[C@@H]2Sc3ccccc3N21 (racemic) | 0.29 µM | 0.088 µM | 0.063 µM | 1.4 µM | 0.67 µM |  | Activity (L929; dose 100 µg/ml): Non-Toxic; t1/2 [6]: 2.62 h; inhibition [7]: Active; MIC (Klebsiella pneumoniae [8]): 0.125 µg/mL; MIC (Klebsiella pneumoniae [9]): 0.125 µg/mL; MIC (Klebsiella pneumoniae [10]): 0.125 µg/mL; MIC (Klebsiella pneumoniae [11]): 16 µg/mL; MIC (Klebsiella pneumoniae [12]): 32 µg/mL; MIC (Klebsiella pneumoniae [13]): 8 µg/mL; MIC (Enterobacter cloacae [14]): 16 µg/mL; MIC (Enterobacter cloacae [15]): 8 µg/mL; MIC (Escherichia coli): 32 µg/mL; MIC (Providencia rettgeri [16]): 32 µg/mL
SC[C@H]1SC[C@@H]2Nc3ccccc3N21 (relative stereo) |  | 1.01 µM | 1.4 µM | 3.7 µM | 0.62 µM |  | Activity (L929; at 100 µg/mL): 20%; t1/2 [6]: 2.45 h
C[C@@H](O)[C@H]1C(=O)N2C(C(=O)O)=C(S[C@@H]3CN[C@H](C(=O)N(C)C)C3)[C@H](C)[C@H]12 [MEROPENEM] |  |  |  |  |  |  | MIC (Klebsiella pneumoniae [17]): 1 µg/mL (≈ 2.61 µM); MIC (Klebsiella pneumoniae [18]): 8 µg/mL (≈ 20.9 µM); MIC (Klebsiella pneumoniae [19]): 4 µg/mL (≈ 10.4 µM); MIC (Klebsiella pneumoniae [20]): 64 µg/mL (≈ 167 µM); MIC (Klebsiella pneumoniae [21]): 128 µg/mL (≈ 334 µM); MIC (Klebsiella pneumoniae [22]): 128 µg/mL (≈ 334 µM); MIC (Enterobacter cloacae [23]): 54 µg/mL (≈ 141 µM); MIC (Enterobacter cloacae [24]): 128 µg/mL (≈ 334 µM); MIC (Providencia rettgeri [25]): 128 µg/mL (≈ 334 µM)
